Results as given in patent publication US20090099029A1, “Methods and substrates for conducting assays” (Invitrogen Corporation, priority 2005, published 2009).
Where two headings read alike, the source gives them in different places.

Assays:
Assay in all cases: Further analysis of a plurality of inhibitors and a plurality of kinases (Table 5 inhibition results)
Format in all cases: biochemical
Design in all cases: scale not given here
kinases of Table 5 [1] = biological target: kinases of Table 5 (Homo sapiens, UniProt Q00536); conditions: kinase PCTK1 (Part I, plate A3, Domain 0); inhibitor 100 uM
Sequence of kinases of Table 5 (Homo sapiens, UniProt Q00536) (Q00536 whole entry): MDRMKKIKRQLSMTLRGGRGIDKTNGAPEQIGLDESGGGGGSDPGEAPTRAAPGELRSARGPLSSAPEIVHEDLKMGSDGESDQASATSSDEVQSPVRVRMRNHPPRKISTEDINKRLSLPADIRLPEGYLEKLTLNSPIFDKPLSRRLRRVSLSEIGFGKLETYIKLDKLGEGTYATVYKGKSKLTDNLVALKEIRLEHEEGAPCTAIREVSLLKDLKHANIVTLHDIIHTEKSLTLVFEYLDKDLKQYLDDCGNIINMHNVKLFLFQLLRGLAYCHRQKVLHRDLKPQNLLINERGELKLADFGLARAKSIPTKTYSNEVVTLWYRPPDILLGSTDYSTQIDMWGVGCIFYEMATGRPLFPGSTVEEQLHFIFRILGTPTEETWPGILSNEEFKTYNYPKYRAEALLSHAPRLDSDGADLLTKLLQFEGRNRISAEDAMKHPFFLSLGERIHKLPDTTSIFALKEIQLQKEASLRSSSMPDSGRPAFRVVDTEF
Text: (§1) The wash solution is then discarded.

kinases of Table 5 [2] = biological target: T1, kinases of Table 5 (Homo sapiens, UniProt Q9UQB9); conditions: kinase STK13 (Part I, plate G11, Domain 1); inhibitor 100 uM
T1 sequence (Q9UQB9 1-309): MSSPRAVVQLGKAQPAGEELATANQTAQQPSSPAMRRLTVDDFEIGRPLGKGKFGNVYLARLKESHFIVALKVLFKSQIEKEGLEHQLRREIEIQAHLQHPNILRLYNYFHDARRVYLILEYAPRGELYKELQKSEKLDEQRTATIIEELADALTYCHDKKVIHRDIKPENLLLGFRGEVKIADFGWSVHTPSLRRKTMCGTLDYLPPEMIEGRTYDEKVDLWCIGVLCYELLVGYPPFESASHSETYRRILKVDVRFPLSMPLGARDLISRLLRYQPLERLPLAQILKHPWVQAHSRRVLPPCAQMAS
Text: as §1

kinases of Table 5 [3] = biological target: T2, kinases of Table 5 (Homo sapiens, UniProt P45985)
T2 sequence (P45985 1-399): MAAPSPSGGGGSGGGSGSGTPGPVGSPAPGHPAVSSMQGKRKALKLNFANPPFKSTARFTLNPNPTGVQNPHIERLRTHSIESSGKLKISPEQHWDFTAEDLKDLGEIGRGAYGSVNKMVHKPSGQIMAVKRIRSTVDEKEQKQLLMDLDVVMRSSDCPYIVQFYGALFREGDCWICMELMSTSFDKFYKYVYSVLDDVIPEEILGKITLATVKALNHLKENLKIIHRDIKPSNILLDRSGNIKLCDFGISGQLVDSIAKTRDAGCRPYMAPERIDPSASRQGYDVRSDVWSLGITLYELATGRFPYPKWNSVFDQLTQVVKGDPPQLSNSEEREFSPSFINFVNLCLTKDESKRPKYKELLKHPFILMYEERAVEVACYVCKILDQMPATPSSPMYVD
Text: as §1

kinases of Table 5 [4] = biological target: kinases of Table 5 (Homo sapiens, UniProt Q9Y6R4); conditions: kinase MAP3K4 (Part I, plate E7, Domain 1); inhibitor 100 uM
Sequence of kinases of Table 5 (Homo sapiens, UniProt Q9Y6R4) (Q9Y6R4 whole entry): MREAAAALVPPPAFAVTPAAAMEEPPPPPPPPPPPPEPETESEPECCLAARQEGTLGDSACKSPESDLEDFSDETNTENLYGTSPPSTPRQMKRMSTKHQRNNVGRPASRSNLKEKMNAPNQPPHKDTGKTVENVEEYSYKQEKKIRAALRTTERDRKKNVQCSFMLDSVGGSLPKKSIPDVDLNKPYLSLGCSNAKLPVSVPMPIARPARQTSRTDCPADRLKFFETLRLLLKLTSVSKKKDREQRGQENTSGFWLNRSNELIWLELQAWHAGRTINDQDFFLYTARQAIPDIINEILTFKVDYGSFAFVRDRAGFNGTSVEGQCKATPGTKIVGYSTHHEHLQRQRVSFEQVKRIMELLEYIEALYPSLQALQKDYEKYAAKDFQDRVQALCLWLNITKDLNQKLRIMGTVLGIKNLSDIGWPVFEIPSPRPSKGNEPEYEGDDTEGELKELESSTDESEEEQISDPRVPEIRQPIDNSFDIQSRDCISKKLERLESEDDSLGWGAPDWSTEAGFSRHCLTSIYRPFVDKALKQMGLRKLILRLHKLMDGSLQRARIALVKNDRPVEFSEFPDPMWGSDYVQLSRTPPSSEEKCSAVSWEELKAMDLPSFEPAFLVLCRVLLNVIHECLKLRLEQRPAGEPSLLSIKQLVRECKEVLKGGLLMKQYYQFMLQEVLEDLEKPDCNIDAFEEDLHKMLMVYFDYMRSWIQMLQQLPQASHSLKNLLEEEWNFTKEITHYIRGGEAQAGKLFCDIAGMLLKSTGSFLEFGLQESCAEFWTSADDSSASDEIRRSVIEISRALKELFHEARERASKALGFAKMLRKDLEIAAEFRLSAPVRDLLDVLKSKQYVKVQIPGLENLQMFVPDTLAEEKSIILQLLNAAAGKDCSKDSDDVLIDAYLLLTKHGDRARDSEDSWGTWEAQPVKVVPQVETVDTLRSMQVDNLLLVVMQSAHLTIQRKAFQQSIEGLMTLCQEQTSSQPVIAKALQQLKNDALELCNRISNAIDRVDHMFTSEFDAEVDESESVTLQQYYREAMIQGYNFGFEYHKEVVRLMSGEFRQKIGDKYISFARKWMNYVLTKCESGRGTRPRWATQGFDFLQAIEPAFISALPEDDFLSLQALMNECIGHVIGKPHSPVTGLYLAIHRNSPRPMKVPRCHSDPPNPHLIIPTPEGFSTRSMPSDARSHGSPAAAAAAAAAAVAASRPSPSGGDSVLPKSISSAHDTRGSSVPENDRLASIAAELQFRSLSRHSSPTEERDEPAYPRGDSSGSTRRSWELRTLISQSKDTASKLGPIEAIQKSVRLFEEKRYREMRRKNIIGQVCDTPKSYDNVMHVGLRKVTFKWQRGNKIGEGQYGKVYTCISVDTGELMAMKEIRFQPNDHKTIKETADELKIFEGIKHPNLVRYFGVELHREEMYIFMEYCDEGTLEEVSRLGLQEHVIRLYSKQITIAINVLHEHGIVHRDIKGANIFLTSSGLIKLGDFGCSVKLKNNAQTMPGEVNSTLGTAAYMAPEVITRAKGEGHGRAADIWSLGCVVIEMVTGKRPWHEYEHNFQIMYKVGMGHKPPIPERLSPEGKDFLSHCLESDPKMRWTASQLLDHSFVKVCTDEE
Text: as §1

kinases of Table 5 [5] = biological target: kinases of Table 5 (Homo sapiens, UniProt Q86UE8); conditions: kinase TLK2 (Part I, plate C8, Domain 1)
Sequence of kinases of Table 5 (Homo sapiens, UniProt Q86UE8) (Q86UE8 whole entry): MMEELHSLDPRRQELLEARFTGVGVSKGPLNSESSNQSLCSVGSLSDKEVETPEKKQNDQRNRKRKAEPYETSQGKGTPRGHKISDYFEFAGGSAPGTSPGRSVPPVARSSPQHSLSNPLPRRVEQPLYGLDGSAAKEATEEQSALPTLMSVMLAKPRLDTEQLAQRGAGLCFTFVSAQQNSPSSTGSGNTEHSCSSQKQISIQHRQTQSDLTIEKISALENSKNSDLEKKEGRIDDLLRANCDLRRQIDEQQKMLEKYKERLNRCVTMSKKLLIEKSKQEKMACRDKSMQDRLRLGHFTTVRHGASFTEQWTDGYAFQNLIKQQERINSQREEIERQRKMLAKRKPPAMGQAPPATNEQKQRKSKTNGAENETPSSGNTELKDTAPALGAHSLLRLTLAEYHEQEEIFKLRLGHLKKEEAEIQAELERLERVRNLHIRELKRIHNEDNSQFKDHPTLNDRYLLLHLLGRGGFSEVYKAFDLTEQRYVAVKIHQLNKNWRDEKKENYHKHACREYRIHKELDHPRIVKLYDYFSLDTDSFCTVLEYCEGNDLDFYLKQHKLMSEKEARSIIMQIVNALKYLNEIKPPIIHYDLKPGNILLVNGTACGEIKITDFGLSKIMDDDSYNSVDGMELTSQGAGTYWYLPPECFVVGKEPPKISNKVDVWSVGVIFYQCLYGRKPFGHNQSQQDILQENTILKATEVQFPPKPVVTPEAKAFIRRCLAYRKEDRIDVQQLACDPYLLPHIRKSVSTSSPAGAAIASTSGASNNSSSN
Text: as §1

kinases of Table 5 [6] = biological target: T3, kinases of Table 5 (Homo sapiens, UniProt P54762); conditions: for Inhibition Results (Level): kinase EPHB1 (Part II, plate B8, Domain 1)
T3 sequence (P54762 18-984): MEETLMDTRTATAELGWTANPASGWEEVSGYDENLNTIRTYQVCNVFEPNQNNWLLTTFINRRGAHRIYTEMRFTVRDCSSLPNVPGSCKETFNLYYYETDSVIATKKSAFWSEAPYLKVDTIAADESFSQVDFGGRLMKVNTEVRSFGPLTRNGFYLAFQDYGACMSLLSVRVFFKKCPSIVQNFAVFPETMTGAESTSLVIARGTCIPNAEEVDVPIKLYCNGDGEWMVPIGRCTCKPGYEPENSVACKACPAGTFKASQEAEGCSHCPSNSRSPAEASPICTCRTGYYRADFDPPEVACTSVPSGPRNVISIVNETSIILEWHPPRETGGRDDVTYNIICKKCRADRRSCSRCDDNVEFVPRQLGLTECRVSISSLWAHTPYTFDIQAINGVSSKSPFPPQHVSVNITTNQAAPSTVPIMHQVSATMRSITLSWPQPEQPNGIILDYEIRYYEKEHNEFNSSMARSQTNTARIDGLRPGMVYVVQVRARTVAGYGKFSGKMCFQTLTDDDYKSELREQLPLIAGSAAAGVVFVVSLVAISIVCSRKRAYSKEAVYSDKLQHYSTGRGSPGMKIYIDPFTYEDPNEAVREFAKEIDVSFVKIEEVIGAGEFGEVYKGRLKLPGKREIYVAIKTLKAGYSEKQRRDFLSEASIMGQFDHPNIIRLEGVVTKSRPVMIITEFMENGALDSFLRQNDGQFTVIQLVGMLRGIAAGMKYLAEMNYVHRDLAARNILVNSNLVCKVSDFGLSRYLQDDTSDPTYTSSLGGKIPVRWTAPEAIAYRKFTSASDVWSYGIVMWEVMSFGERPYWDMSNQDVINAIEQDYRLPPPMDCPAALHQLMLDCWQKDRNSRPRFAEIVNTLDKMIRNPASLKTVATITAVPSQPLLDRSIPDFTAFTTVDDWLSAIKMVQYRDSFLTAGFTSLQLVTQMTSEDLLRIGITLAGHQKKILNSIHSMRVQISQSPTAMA
Text: as §1

kinases of Table 5 [7] = biological target: T4, kinases of Table 5 (Homo sapiens, UniProt Q8IV63); conditions: kinase LOC51231 (Part I, plate C12, Domain 1)
T4 sequence (Q8IV63 1-474): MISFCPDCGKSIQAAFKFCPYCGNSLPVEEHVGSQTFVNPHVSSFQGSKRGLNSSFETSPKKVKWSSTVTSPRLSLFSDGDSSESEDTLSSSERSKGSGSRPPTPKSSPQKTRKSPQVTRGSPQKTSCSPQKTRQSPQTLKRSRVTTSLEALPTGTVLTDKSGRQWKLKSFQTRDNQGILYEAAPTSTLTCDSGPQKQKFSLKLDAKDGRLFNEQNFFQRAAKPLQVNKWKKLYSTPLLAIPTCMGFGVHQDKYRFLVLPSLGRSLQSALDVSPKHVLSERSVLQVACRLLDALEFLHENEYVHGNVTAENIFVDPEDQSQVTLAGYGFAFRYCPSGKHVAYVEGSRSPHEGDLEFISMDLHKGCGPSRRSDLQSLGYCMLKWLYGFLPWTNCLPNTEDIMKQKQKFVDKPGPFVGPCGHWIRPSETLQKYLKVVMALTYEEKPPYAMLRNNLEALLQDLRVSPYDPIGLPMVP
Text: as §1

[8] = kinase MAP2K4 (Part I, plate E6, Domain 1), inhibitor 100 uM
[9] = kinase EPHB1, concentration not given

Structure (SMILES) | Inhibition Results (Level) (kinases of Table 5 [1]) | Inhibition Results (Level) (kinases of Table 5 [2]) | Inhibition Results (Level) (kinases of Table 5 [3]; [8]) | Inhibition Results (Level) (kinases of Table 5 [4]) | Inhibition Results (Level) (kinases of Table 5 [5]; inhibitor 100 uM) | Inhibition level (kinases of Table 5 [6]; kinase EPHB1, inhibitor 100 uM) | Inhibition Results (Level) (kinases of Table 5 [7]; inhibitor 100 uM) | Inhibition Results (Level) (kinases of Table 5 [3]; kinase MAP2K4 (Part I, plate E6, Domain 1), inhibitor <3.7 mM) | Inhibition Results (Level) (kinases of Table 5 [5]; inhibitor <3.7 mM) | Inhibition level (kinases of Table 5 [6]; [9]) | Inhibition Results (Level) (kinases of Table 5 [7]; inhibitor <3.7 mM) | Inhibition Results (Level) (kinases of Table 5 [6]; inhibitor 100 uM) | Inhibition Results (Level) (kinases of Table 5 [3]; kinase MAP2K4 (Part I, plate E6, Domain 1), inhibitor 90 uM) | Inhibition Results (Level) (kinases of Table 5 [5]; inhibitor 90 uM) | Inhibition Results (Level) (kinases of Table 5 [7]; inhibitor 90 uM) | Inhibition Results (Level) (kinases of Table 5 [3]) | Inhibition Results (Level) (kinases of Table 5 [5]; inhibitor 21.5 uM) | Inhibition level (kinases of Table 5 [6]) | Inhibition Results (Level) (kinases of Table 5 [7]; inhibitor 21.5 uM)
N#C/C(=C/c1ccc(O)c(O)c1)C(=O)NCc1ccccc1 [AG 490] | 0 | 2 | 0 | 2 | 2 | 0 | 0 |  |  |  |  |  |  |  |  |  |  |  | 
COc1cc2ncnc(Nc3cccc(Cl)c3)c2cc1OC [AG 1478] | 0 | 1 | 0 | 1 | 2 | 2 | 0 |  |  |  |  |  |  |  |  |  |  |  | 
O=c1c(-c2ccc(O)cc2)coc2cc(O)cc(O)c12 [Genistein] | 1 | 2 | 2 | 1 | 2 | 1 | 2 | 0 | 0 | 0 | 0 |  |  |  |  |  |  |  | 
O=S(=O)(NCCNC/C=C/c1ccc(Br)cc1)c1cccc2cnccc12 [H-89] | 2 | 1 | 1 | 1 | 2 |  | 2 |  |  |  |  | 1 |  |  |  |  |  |  | 
CC(C)(C)n1nc(-c2ccc(Cl)cc2)c2c(N)ncnc21 [PP2] | 1 | 2 | 2 | 2 | 2 | 2 | 0 |  |  |  |  |  |  |  |  |  |  |  | 
O=c1c(O)c(-c2ccc(O)c(O)c2)oc2cc(O)cc(O)c12 [Quercetin] | 0 | 2 | 0 | 0 | 0 |  | 0 |  |  |  |  | 0 |  |  |  |  |  |  | 
Cn1cc(C2=C(c3cn(CCCSC(=N)N)c4ccccc34)C(=O)NC2=O)c2ccccc21 [Ro-31-8220] | 0 | 2 | 1 | 2 | 1 | 0 | 2 |  |  | 2 |  |  | 0 | 2 | 0 |  |  |  | 
CC(=O)c1c(O)c(C)c(O)c(Cc2c(O)c3c(c(C(=O)/C=C/c4ccccc4)c2O)OC(C)(C)C=C3)c1O [Rottlerin (Mallotoxin)] | 0 | 1 | 1 | 1 | 2 |  | 0 |  |  |  |  | 1 |  |  |  |  |  |  | 
CN[C@@H]1C[C@H]2O[C@@](C)([C@@H]1OC)n1c3ccccc3c3c4c(c5c6ccccc6n2c5c31)C(=O)NC4 [Staurosporine] |  |  |  |  |  |  |  |  |  |  |  |  |  |  |  | 0 | 2 | 2 | 0
